# Test results from US20240150293A1, “SPIROCYCLOHEXANE DERIVATIVES, PHARMACEUTICAL COMPOSITIONS CONTAINING THEM AND THEIR USES AS ANTI-APOPTOTIC INHIBITORS” (LES LABORATOIRES SERVIER, priority 2021, published 2024).
# Molecular target: Mcl-1 protein (UniProtKB Q07820) (Homo sapiens (Human), UniProt Q07820)
# Test: Inhibition of Mcl-1 by the fluorescence polarisation assay (Example A, Method A)
# Assay type: binding
# Details: fluorescence polarization assay
# Outline: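 Protein (5 nM) and fluorescein-tagged peptide tracer (1 nM) incubated with 11-point compound series for 2 h at room temperature in HEPES/NaCl/Tween 20 buffer, pH 7.4, 5% DMSO. Displacement read as decrease in polarisation; IC50 fitted by 4-parameter logistic, converted to Ki (cKi or eKi).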
# Sequence of Mcl-1 protein (Q07820 whole entry): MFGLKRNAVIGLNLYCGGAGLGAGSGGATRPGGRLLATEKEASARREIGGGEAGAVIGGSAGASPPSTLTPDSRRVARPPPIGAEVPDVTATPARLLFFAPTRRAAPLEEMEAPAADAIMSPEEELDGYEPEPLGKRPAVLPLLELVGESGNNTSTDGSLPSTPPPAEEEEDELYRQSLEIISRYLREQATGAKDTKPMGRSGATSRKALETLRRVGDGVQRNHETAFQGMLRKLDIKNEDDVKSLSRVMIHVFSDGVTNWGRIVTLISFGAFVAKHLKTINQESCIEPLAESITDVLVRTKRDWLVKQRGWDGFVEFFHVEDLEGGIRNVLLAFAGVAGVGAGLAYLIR
row,Ki [µM],Structure (SMILES)
1,22.4,"CC1=C(C(C)C)c2ccccc2[C@]12CC[C@@](Nc1cccc(Br)c1)(C(=O)O)CC2 [Example 204, (1r,4r)-4-(3-bromoanilino)-2′-methyl-3′-(propan-2-yl)spiro[cyclohexane-1,1′-indene]-4-carboxylic acid]"
2,1.71,"CCC1=C(C)[C@]2(CC[C@](Nc3cccc(Cl)c3)(C(=O)O)CC2)c2ccccc21 [Example 205, (1r,4r)-4-(3-chloroanilino)-3′-ethyl-2′-methylspiro[cyclohexane-1,1′-indene]-4-carboxylic acid]"
3,4.68,"CCC1=C(C)[C@]2(CC[C@@](Nc3cccc(Cl)c3)(C(=O)O)CC2)c2ccccc21 [Example 206, (1s,4s)-4-(3-chloroanilino)-3′-ethyl-2′-methylspiro[cyclohexane-1,1′-indene]-4-carboxylic acid]"
4,35,"O=C(O)[C@]1(Nc2cccc(Br)c2)CC[C@@]2(CC1)C(c1ccccc1)=Cc1ccccc12 [Example 209, (1r,4r)-4-(3-bromoanilino)-2′-phenylspiro[cyclohexane-1,1′-indene]-4-carboxylic acid]"
5,11,"O=C(O)[C@]1(Nc2cccc(Br)c2)CC[C@@]2(CC1)c1ccccc1C[C@@H]2c1ccccc1 [Example 211, (1r,2′R,4R)-4-(3-bromoanilino)-2′-phenyl-2′,3′-dihydrospiro[cyclohexane-1,1′-indene]-4-carboxylic acid]"
6,9.47,"Cn1cc(C2Cc3ccccc3[C@]23CC[C@@](Nc2cccc(Br)c2)(C(=O)O)CC3)cn1 (stereo partly shown) [Example 212, (1r,4r)-4-(3-bromoanilino)-2′-(1-methyl-1H-pyrazol-4-yl)-2′,3′-dihydrospiro[cyclohexane-1,1′-indene]-4-carboxylic acid]"
7,87.3,"Cn1cc(C2Cc3ccccc3[C@]23CC[C@](Nc2cccc(Br)c2)(C(=O)O)CC3)cn1 (stereo partly shown) [Example 213, (1s,4s)-4-(3-bromoanilino)-2′-(1-methyl-1H-pyrazol-4-yl)-2′,3′-dihydrospiro[cyclohexane-1,1′-indene]-4-carboxylic acid]"

# The remaining lines, values behind:
row,Structure (SMILES),Ki [µM]
1,"O=C(O)[C@]1(Nc2cccc(Cl)c2)CC[C@]2(CC1)C(C#CCCOc1ccnc3ccsc13)=Cc1ccccc12 [Example 195, (1s,4s)-4-(3-chloroanilino)-2′-{4-[(thieno[3,2-b]pyridin-7-yl)oxy]but-1-yn-1-yl}spiro[cyclohexane-1,1′-indene]-4-carboxylic acid]",0.266
2,"O=C(O)[C@]1(Nc2cccc(Cl)c2)CC[C@@]2(CC1)c1ccccc1CC2CCCN1CCOCC1 (stereo partly shown) [Example 196, (1r,4r)-4-(3-chloroanilino)-2′-[3-(morpholin-4-yl)propyl]-2′,3′-dihydrospiro[cyclohexane-1,1′-indene]-4-carboxylic acid]",9.47
3,"COCCCC1Cc2ccccc2[C@]12CC[C@@](Nc1cccc(Cl)c1)(C(=O)O)CC2 (stereo partly shown) [Example 197, (1r,4r)-4-(3-chloroanilino)-2′-(3-methoxypropyl)-2′,3′-dihydrospiro[cyclohexane-1,1′-indene]-4-carboxylic acid]",1.38
4,"CN1CCN(CCCC2Cc3ccccc3[C@]23CC[C@@](Nc2cccc(Cl)c2)(C(=O)O)CC3)CC1=O (stereo partly shown) [Example 198, (1r,4r)-4-(3-chloroanilino)-2′-[3-(4-methyl-3-oxopiperazin-1-yl)propyl]-2′,3′-dihydrospiro[cyclohexane-1,1′-indene]-4-carboxylic acid]",7.48
5,"CC1=C(C)[C@]2(CC[C@](Nc3cccc(Br)c3)(C(=O)O)CC2)c2ccccc21 [Example 202, (1r,4r)-4-(3-bromoanilino)-2′,3′-dimethylspiro[cyclohexane-1,1′-indene]-4-carboxylic acid]",0.3
6,"CC1=C(C)[C@]2(CC[C@@](Nc3cccc(Br)c3)(C(=O)O)CC2)c2ccccc21 [Example 203, (1s,4s)-4-(3-bromoanilino)-2′,3′-dimethylspiro[cyclohexane-1,1′-indene]-4-carboxylic acid]",40.1
